Source: patent publication US7704995B2 (Exelixis, Inc., priority 2003, dated 2010)
Like-named read-outs stand apart in the source and are kept apart here. Each block holds one compound with its values, some of them ahead of it.

Target: T1, Chk1 (Homo sapiens, UniProt O14757)
T1 construct: purchased Upstate Biotechnology
T1 sequence (O14757 1-476): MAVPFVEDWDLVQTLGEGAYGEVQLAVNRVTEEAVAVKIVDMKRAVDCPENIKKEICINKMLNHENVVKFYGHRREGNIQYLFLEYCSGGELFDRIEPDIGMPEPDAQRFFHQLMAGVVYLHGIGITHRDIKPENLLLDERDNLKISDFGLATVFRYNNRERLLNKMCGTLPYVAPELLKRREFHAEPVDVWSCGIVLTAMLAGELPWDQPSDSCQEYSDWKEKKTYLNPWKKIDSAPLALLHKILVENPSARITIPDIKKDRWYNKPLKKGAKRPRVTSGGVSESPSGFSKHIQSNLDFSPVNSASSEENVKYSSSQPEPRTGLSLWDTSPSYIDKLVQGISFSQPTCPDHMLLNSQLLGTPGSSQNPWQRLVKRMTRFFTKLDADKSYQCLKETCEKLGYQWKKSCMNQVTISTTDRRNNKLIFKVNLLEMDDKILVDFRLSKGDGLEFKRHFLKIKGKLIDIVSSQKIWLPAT
Experiment: Chk1 kinase assay: incorporation of γ-33P ATP into immobilized myelin basic protein
Format: biochemical
Conditions: read-out: Chk1 IC50
Outline: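 Enzyme activity is measured as γ-33P transfer from ATP onto immobilized MBP over 1 h at room temperature, with Chk1 at 10 nM/10 μM unlabeled ATP and Chk2 at 20 nM/30 μM unlabeled ATP. Compounds are tested in 1% DMSO.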

[1] = Table 11, Chk1 only, class symbols A-D

IC50 (Table 11, Chk1 only): 50 to 1000 nM
Compound: CNC(=O)c1nc(-c2cccc(CNCc3ccc(-c4ccccc4)cc3F)c2)cnc1N [Example 449, 3-amino-6-[3-({[(3-fluorobiphenyl-4-yl)methyl]amino}methyl)phenyl]-N-methylpyrazine-2-carboxamide]

IC50 (Table 11, Chk1 only): 50 to 1000 nM
Compound: CNC(=O)c1cc(-c2cccc(CNC3CCc4cc(F)cc(F)c43)c2)cnc1N (centres unmarked) [Example 524, 2-amino-5-(3-{[(5,7-difluoro-2,3-dihydro-1H-inden-1-yl)amino]methyl}phenyl)-N-methylpyridine-3-carboxamide]

IC50: 50 to 1000 nM
Compound: CNC(=O)c1nc(-c2cccc(C(=O)NCc3cccc(C)c3C)c2)cnc1N [Example 243, 3-amino-6-[3-({[(2,3-dimethylphenyl)methyl]amino}carbonyl)phenyl]-N-methylpyrazine-2-carboxamide]

IC50 (Table 11, Chk1 only): ≥ 10000 nM
Compound: CNc1nccc(-c2nc(-c3cccc(C(=O)NCc4ccccc4)c3)cnc2N)n1 [Example 657, 3-{5-amino-6-[2-(methylamino)pyrimidin-4-yl]pyrazin-2-yl}-N-(phenylmethyl)benzamide]

IC50 (Table 11, Chk1 only): 50 to 1000 nM
Compound: CNC(=O)c1nc(-c2cccc(CN[C@H]3CCc4cc(F)cc(F)c43)c2)cnc1N [Example 483, 3-amino-6-[3-({[(1S)-5,7-difluoro-2,3-dihydro-1H-inden-1-yl]amino}methyl)phenyl]-N-methylpyrazine-2-carboxamide]

IC50 (Table 11, Chk1 only): 50 to 1000 nM
Compound: CNC(=O)c1nc(-c2ccc(F)c(C(=O)N[C@H]3CCc4ccccc43)c2)cnc1N [Example 772, 3-amino-6-(3-{[(1S)-2,3-dihydro-1H-inden-1-ylamino]carbonyl}-4-fluorophenyl)-N-methylpyrazine-2-carboxamide]

IC50: 50 to 1000 nM
Compound: CNC(=O)c1nc(-c2cccc(C(=O)NCc3ccc(OC)cc3OC)c2)cnc1N [Example 115, 3-amino-6-{3-[({[2,4-bis(methyloxy)phenyl]methyl}amino)carbonyl]phenyl}-N-methylpyrazine-2-carboxamide]

IC50 (Table 11, Chk1 only): ≥ 10000 nM
Compound: COC[C@H]1CCCN1NC(=N)c1nc(-c2cccc(C(=O)NCc3ccccc3)c2)cnc1N [Example 624, 3-{5-amino-6-[imino({(2R)-2-[(methyloxy)methyl]pyrrolidin-1-yl}amino)methyl]pyrazin-2-yl}-N-(phenylmethyl)benzamide]

IC50: 50 to 1000 nM
Compound: CNC(=O)c1nc(-c2cccc(CO)c2)cnc1N [Example 57, 3-amino-6-[3-(hydroxymethyl)phenyl]-N-methylpyrazine-2-carboxamide]

IC50 [1]: < 50 nM
Compound: COc1ccc(CNC(=O)c2cccc(-c3cnc(N)c(C(=O)N[C@H]4CCCNC4)n3)c2)cc1OC [Example 1042, 3-amino-6-{3-[({[3,4-bis(methyloxy)phenyl]methyl}amino)carbonyl]phenyl}-N-[(3S)-piperidin-3-yl]pyrazine-2-carboxamide]

IC50 (Table 11, Chk1 only): 1000 to 10000 nM
Compound: Nc1ncc(-c2cccc(CN[C@H]3CCc4ccccc43)c2)nc1C(=O)NCCN1CCOCC1 [Example 542, 3-amino-6-(3-{[(1S)-2,3-dihydro-1H-inden-1-ylamino]methyl}phenyl)-N-(2-morpholin-4-ylethyl)pyrazine-2-carboxamide]

IC50 (Table 11, Chk1 only): < 50 nM
Compound: CNC(=O)c1nc(-c2cccc(CN[C@H]3CCCc4ccccc43)c2)cnc1N [Example 436, 3-amino-N-methyl-6-(3-{[(1S)-1,2,3,4-tetrahydronaphthalen-1-ylamino]methyl}phenyl)pyrazine-2-carboxamide]

Second part, the compound before the results:

Compound: Nc1ncc(-c2cccc(NC(=O)c3ccc(Br)cc3F)c2)nc1C(=O)N[C@H]1CCCNC1 [Example 909, 3-amino-6-(3-{[(4-bromo-2-fluorophenyl)carbonyl]amino}phenyl)-N-[(3S)-piperidin-3-yl]pyrazine-2-carboxamide]
IC50 [1]: < 50 nM

Compound: Nc1ncc(-c2cccc(CNS(=O)(=O)c3ccccc3C(F)(F)F)c2)nc1C(=O)N[C@H]1CCCNC1 [Example 915, 3-amino-N-[(3S)-piperidin-3-yl]-6-{3-[({[2-(trifluoromethyl)phenyl]sulfonyl}amino)methyl]phenyl}pyrazine-2-carboxamide]
IC50 [1]: 50 to 1000 nM

Compound: CN(C)c1ccc(C(=O)NCc2cccc(-c3cnc(N)c(C(=O)N[C@H]4CCCNC4)n3)c2)cc1 [Example 903, 3-amino-6-{3-[({[4-(dimethylamino)phenyl]carbonyl}amino)methyl]phenyl}-N-[(3S)-piperidin-3-yl]pyrazine-2-carboxamide]
IC50 [1]: < 50 nM

Compound: CNC(=O)c1nc(-c2cccc(C(=O)NCc3ccc4c(c3)OCO4)c2)cnc1N [Example 223, 3-amino-6-(3-{[(1,3-benzodioxol-5-ylmethyl)amino]carbonyl}phenyl)-N-methylpyrazine-2-carboxamide]
IC50: 50 to 1000 nM

Compound: CC(=O)NCCCNC(=O)c1nc(-c2cccc(C(=O)NCc3ccccc3)c2)cnc1N [Example 647, N-[3-(acetylamino)propyl]-3-amino-6-(3-{[(phenylmethyl)amino]carbonyl}phenyl)pyrazine-2-carboxamide]
IC50 (Table 11, Chk1 only): 1000 to 10000 nM

Compound: Nc1ncc(-c2cccc(C(=O)NCc3ccc(Cl)cc3Cl)c2)nc1C(=O)N[C@H]1CCNC1 [Example 825, 3-amino-6-[3-({[(2,4-dichlorophenyl)methyl]amino}carbonyl)phenyl]-N-[(3S)-pyrrolidin-3-yl]pyrazine-2-carboxamide]
IC50 [1]: < 50 nM

Compound: Nc1ncc(-c2cccc(NC(=O)Cc3ccccc3F)c2)nc1C(=O)N[C@H]1CCCNC1 [Example 898, 3-amino-6-(3-{[(2-fluorophenyl)acetyl]amino}phenyl)-N-[(3S)-piperidin-3-yl]pyrazine-2-carboxamide]
IC50 [1]: < 50 nM

Compound: Nc1ncc(-c2cccc(C(=O)NCc3ccc(Cl)cc3)c2)nc1C(=O)N[C@H]1CCCNC1 [Example 861, 3-amino-6-[3-({[(4-chlorophenyl)methyl]amino}carbonyl)phenyl]-N-[(3S)-piperidin-3-yl]pyrazine-2-carboxamide]
IC50 [1]: < 50 nM

Compound: CNC(=O)c1nc(-c2cccc(CNC(=O)C3CCN(c4ncc(C(F)(F)F)cn4)CC3)c2)cnc1N [Example 354, 3-amino-N-methyl-6-(3-{[({1-[5-(trifluoromethyl)pyrimidin-2-yl]piperidin-4-yl}carbonyl)amino]methyl}phenyl)pyrazine-2-carboxamide]
IC50: 50 to 1000 nM

Compound: CNC(=O)c1nc(-c2cccc(CNC3CCc4cc(-n5cncn5)ccc43)c2)cnc1N (centres unmarked) [Example 512, 3-amino-N-methyl-6-[3-({[5-(1H-1,2,4-triazol-1-yl)-2,3-dihydro-1H-inden-1-yl]amino}methyl)phenyl]pyrazine-2-carboxamide]
IC50 (Table 11, Chk1 only): 50 to 1000 nM

Compound: Nc1ncc(-c2cccc(CN[C@H]3CCc4ccccc43)c2)nc1-c1nc(-c2ccccc2)n[nH]1 [Example 557, 5-(3-{[(1S)-2,3-dihydro-1H-inden-1-ylamino]methyl}phenyl)-3-(3-phenyl-1H-1,2,4-triazol-5-yl)pyrazin-2-amine]
IC50 (Table 11, Chk1 only): < 50 nM

Compound: CNC(=O)c1nc(-c2cccc(C(=O)NCc3ccoc3)c2)cnc1N [Example 201, 3-amino-6-(3-{[(furan-3-ylmethyl)amino]carbonyl}phenyl)-N-methylpyrazine-2-carboxamide]
IC50: 50 to 1000 nM

Compound: CNC(=O)c1nc(-c2cccc(CNCc3ccc(-c4cccs4)cc3)c2)cnc1N [Example 422, 3-amino-N-methyl-6-{3-[({[4-(2-thienyl)phenyl]methyl}amino)methyl]phenyl}pyrazine-2-carboxamide]
IC50: < 50 nM

Compound: Nc1ncc(-c2cccc(CNC(=O)c3ccccc3Cl)c2)nc1-c1nc([C@H]2CCCNC2)n[nH]1 [Example 940, N-{[3-(5-amino-6-{3-[(3S)-piperidin-3-yl]-1H-1,2,4-triazol-5-yl}pyrazin-2-yl)phenyl]methyl}-2-chlorobenzamide]
IC50 [1]: < 50 nM

Compound: CNC(=O)c1nc(-c2cccc(CNCc3cc(-c4cccs4)ccc3F)c2)cnc1N [Example 457, 3-amino-6-{3-[({[2-fluoro-5-(2-thienyl)phenyl]methyl}amino)methyl]phenyl}-N-methylpyrazine-2-carboxamide]
IC50 (Table 11, Chk1 only): 50 to 1000 nM

Compound: Nc1ncc(-c2cccc(C(=O)N[C@H]3c4ccccc4C[C@@H]3O)c2)nc1C(=O)N[C@H]1CCCCNC1 [Example 970, 3-amino-N-[(3S)-azepan-3-yl]-6-[3({[(1S,2S)-2-hydroxy-2,3-dihydro-1H-inden-1-yl]amino}carbonyl)phenyl]pyrazine-2-carboxamide]
IC50 [1]: < 50 nM

Compound: CNC(=O)c1nc(-c2cccc(CNCc3cc(Br)ccc3F)c2)cnc1N [Example 444, 3-amino-6-[3-({[(5-bromo-2-fluorophenyl)methyl]amino}methyl)phenyl]-N-methylpyrazine-2-carboxamide]
IC50 (Table 11, Chk1 only): 50 to 1000 nM

Compound: CCN1CCN(CCOc2cccc(-c3cnc(N)c(C(=O)NC)n3)c2)CC1 [Example 190, 3-amino-6-(3-{[2-(4-ethylpiperazin-1-yl)ethyl]oxy}phenyl)-N-methylpyrazine-2-carboxamide]
IC50: 50 to 1000 nM

Compound: C/C(=N\Nc1ccc(C(F)(F)F)cc1)c1nc(-c2cccc(C(=O)NCc3ccccc3)c2)cnc1N [Example 640, 3-(5-amino-6-{(1E)-N-[4-(trifluoromethyl)phenyl]ethanehydrazonoyl}pyrazin-2-yl)-N-(phenylmethyl)benzamide]
IC50 (Table 11, Chk1 only): ≥ 10000 nM

Compound: CNC(=O)c1nc(-c2cccc(C(=O)NC3CCCCC3)c2)cnc1N [Example 133, 3-amino-6-{3-[(cyclohexylamino)carbonyl]phenyl}-N-methylpyrazine-2-carboxamide]
IC50: 1000 to 10000 nM
